Test results from article PMC5681660, “Reduced hepatitis B and D viral entry using clinically applied drugs as novel inhibitors of the bile acid transporter NTCP” (Scientific Reports, 2017).
Structures can show the parent of a compound that is named as a salt.

Molecular target: T1, human NTCP (Homo sapiens, UniProt Q14973)
T1 sequence (Q14973 1-349): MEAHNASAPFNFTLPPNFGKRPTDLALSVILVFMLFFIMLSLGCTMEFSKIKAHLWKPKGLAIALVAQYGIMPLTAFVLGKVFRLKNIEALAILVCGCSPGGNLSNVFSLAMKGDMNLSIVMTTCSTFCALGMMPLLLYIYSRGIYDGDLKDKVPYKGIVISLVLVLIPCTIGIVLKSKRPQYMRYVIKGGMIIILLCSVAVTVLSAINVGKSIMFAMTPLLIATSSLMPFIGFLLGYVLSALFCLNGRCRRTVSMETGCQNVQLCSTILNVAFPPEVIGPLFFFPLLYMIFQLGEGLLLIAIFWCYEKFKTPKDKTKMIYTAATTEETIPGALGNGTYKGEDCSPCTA
Experiment: Screening taurocholate uptake assay (96-well, [14C]taurocholate, 10 µM drug)
Conditions: for B-score functional assay: 10 µM drug

[1] = combined ranking of functional and binding screening assays
[2] = ranking over the functional and the binding screening assay
[3] = screening taurocholate uptake, B-score

Row | Structure (SMILES) | Ranking score [1] | B-score functional assay (screening taurocholate uptake) | Ranking score [2] | further results
1 | CN1CCN(C(c2ccccc2)c2ccccc2)CC1.Cl [Cyclizine hydrochloride] | 578.424 | -0.953 | – | –
2 | C[C@@H]1C[C@@H]([C@H](O)CC2CC(=O)NC(=O)C2)C(=O)[C@@H](C)C1 [Cycloheximide] | 464.697 | 0.172 | – | –
3 | CN(C)CCOC(=O)C(c1ccccc1)C1(O)CCCC1 (centres unmarked) [Cyclopentolate hydrochloride] | 624.063 | -0.521 | – | –
4 | Nc1ccc(S(=O)(=O)c2ccc(N)cc2)cc1 [Dapsone] | – | 0.012 | 186.888 | –
5 | CC(=O)N(O)CCCCCNC(=O)CCC(=O)N(O)CCCCCNC(=O)CCC(=O)N(O)CCCCCN [Deferoxamine mesylate] | – | -0.936 | 277.171 | –
6 | CC[N+](CC)(CC(=O)Nc1c(C)cccc1C)Cc1ccccc1 [Denatonium benzoate] | 531.85 | -0.069 | – | –
7 | CNCCCN1c2ccccc2CCc2ccccc21 [Desipramine hydrochloride] | – | – | – | B-score functional assay (Prestwick library screen, taurocholate uptake): 0.022; Ranking score (ranking score beside the functional and binding assay B-scores of the screen): 719.8
8 | CC(=O)OCC(=O)[C@@]1(O)[C@H](C)C[C@H]2[C@@H]3CCC4=CC(=O)C=C[C@]4(C)[C@@]3(F)[C@@H](O)C[C@@]21C [Dexamethasone acetate] | 586.678 | 0.046 | – | –
9 | CC(=O)Oc1cccc2c1C(=O)c1c(OC(C)=O)cc(C(=O)O)cc1C2=O [Diacerein] | – | -4.175 | 199.08 | –
10 | CN(C)CCN1C(=O)c2ccccc2N(C)c2ccccc21.Cl [Dibenzepine hydrochloride] | 501.825 | -0.713 | – | –
11 | CCCCOc1cc(C(=O)NCCN(CC)CC)c2ccccc2n1 [Dibucaine] | 1210.75 | – | – | B-score functional assay [3]: 1.579
12 | N#CC(c1ccc(Cl)cc1)c1c(Cl)cc(-n2ncc(=O)[nH]c2=O)cc1Cl (centres unmarked) [Diclazuril] | – | -9.074 | 46.9894 | –
13 | O=C(O)Cc1ccccc1Nc1c(Cl)cccc1Cl [Diclofenac sodium] | 464.103 | -1.237 | – | –
14 | CC/C(=C(/CC)c1ccc(O)cc1)c1ccc(O)cc1 [Diethylstilbestrol] | – | -0.349 | 262.907 | –
15 | O=C(O)c1cc(-c2ccc(F)cc2F)ccc1O [Diflunisal] | – | -4.496 | 134.198 | –
16 | CN[C@@H]1[C@H](O[C@H]2[C@H](O[C@H]3[C@H](O)[C@@H](O)[C@H](NC(=N)N)[C@@H](O)[C@@H]3NC(=N)N)O[C@@H](C)[C@]2(O)CO)O[C@@H](CO)[C@H](O)[C@H]1O [Dihydrostreptomycin sulfate] | – | -2.479 | 143.478 | –
17 | COc1cc(C(=O)OCCCN2CCCN(CCCOC(=O)c3cc(OC)c(OC)c(OC)c3)CC2)cc(OC)c1OC.Cl.Cl [Dilazep dihydrochloride] | 649.692 | -0.659 | – | –
18 | CN(C(=O)C(Cl)Cl)c1ccc(OC(=O)c2ccco2)cc1 [Diloxanide furoate] | 1159.98 | – | – | B-score functional assay [3]: 1.688
19 | CCCCc1cc2ccccc2c(OCCN(C)C)n1 [Dimethisoquin hydrochloride] | – | -0.419 | 238.967 | –
20 | CCCCC[C@H](O)/C=C/[C@@H]1[C@@H](C/C=C\CCCC(=O)O)[C@@H](O)C[C@H]1O [Dinoprost trometamol] | 615.067 | 0.508 | – | –
21 | COc1ccc(-c2cc(=O)c3c(O)cc(O[C@@H]4O[C@H](CO[C@@H]5O[C@@H](C)[C@H](O)[C@@H](O)[C@H]5O)[C@@H](O)[C@H](O)[C@H]4O)cc3o2)cc1O [Diosmin] | – | -1.635 | 207.123 | –
22 | C[N+]1(C)CCC(=C(c2ccccc2)c2ccccc2)CC1 [Diphemanil methylsulfate] | 1220.85 | – | – | B-score functional assay [3]: 2.82
23 | CN1CCC(OC(c2ccccc2)c2ccccc2)CC1 [Diphenylpyraline hydrochloride] | – | -0.425 | 142.127 | –
24 | CNCC(O)c1ccc(OC(=O)C(C)(C)C)c(OC(=O)C(C)(C)C)c1 (centres unmarked) [Dipivefrin hydrochloride] | 1200.98 | – | – | B-score functional assay [3]: 1.926
25 | CCN(CC)C(=S)SSC(=S)N(CC)CC [Disulfiram] | – | -4.037 | 82.3772 | –
26 | C[C@]12N[C@H](Cc3ccccc31)c1ccccc12 [Dizocilpine maleate] | 484.42 | -0.357 | – | –
27 | CC(=O)O[C@@]12CO[C@@H]1C[C@H](O)[C@@]1(C)C(=O)[C@H](O)C3=C(C)[C@@H](OC(=O)[C@H](O)[C@@H](NC(=O)OC(C)(C)C)c4ccccc4)C[C@@](O)([C@@H](OC(=O)c4ccccc4)[C@H]21)C3(C)C [Docetaxel] | – | -5.513 | 106.066 | –
28 | CN(CCOc1ccc(NS(C)(=O)=O)cc1)CCc1ccc(NS(C)(=O)=O)cc1 [Dofetilide] | 626.449 | -0.213 | – | –

Row | Structure (SMILES) | Ranking score [1] | B-score functional assay (screening taurocholate uptake) | Ranking score [2] | further results
29 | CS(=O)(=O)O.O=C(O[C@H]1C[C@H]2CC3C[C@@H](C1)N2CC3=O)c1c[nH]c2ccccc12 [Dolasetron mesilate] | 1169.41 | – | – | B-score functional assay [3]: 1.844
30 | O=c1[nH]c2ccccc2n1CCCN1CCC(n2c(=O)[nH]c3cc(Cl)ccc32)CC1 [Domperidone] | 475.277 | -1.309 | – | –
31 | CCN(CC)CCOC(=O)C(c1ccccc1)C1CCCCC1 (centres unmarked) [Drofenine hydrochloride] | 532.5 | -0.177 | – | –
32 | CCCCOc1ccc(C(=O)CCN2CCCCC2)cc1 [Dyclonine hydrochloride] | 591.312 | -0.08 | – | –
33 | CC(=O)[C@H]1CC[C@H]2[C@@H]3C=CC4=CC(=O)CC[C@@]4(C)[C@@H]3CC[C@]12C [Dydrogesterone] | 511.223 | -1.016 | – | –
34 | O=c1c2ccccc2[se]n1-c1ccccc1 [Ebselen] | – | -4.734 | 12.2474 | –
35 | Clc1ccc(COC(Cn2ccnc2)c2ccc(Cl)cc2Cl)cc1 (centres unmarked) [Econazole nitrate] | – | -2.794 | 155.949 | –
36 | CCOCCn1c(N2CCCN(C)CC2)nc2ccccc21 [Emedastine] | 501.772 | -0.5 | – | –
37 | C=CCOC(Cn1ccnc1)c1ccc(Cl)cc1Cl (centres unmarked) [Enilconazole] | 592.625 | -0.129 | – | –
38 | COc1cc(C)nc(-n2nc(C)cc2OC)n1 [Epirizole] | – | 0.634 | 209.705 | –
39 | C[C@]12CC[C@H]3C(=CCc4cc(O)ccc43)[C@@H]1CCC2=O [Equilin] | – | -2.643 | 264.641 | –
40 | C#Cc1cccc(Nc2ncnc3cc(OCCOC)c(OCCOC)cc23)c1 [Erlotinib] | – | -3.126 | 239.996 | –
41 | CN(C)CCC[C@@]1(c2ccc(F)cc2)OCc2cc(C#N)ccc21 [Escitalopram oxalate] | 540.899 | 0.103 | – | –
42 | CNC(=O)Oc1ccc2c(c1)[C@]1(C)CCN(C)[C@@H]1N2C [Eserine hemisulfate salt] | – | -0.074 | 269.255 | –
43 | C[C@]12CC[C@@H]3c4ccc(O)cc4CC[C@H]3[C@@H]1CC[C@@H]2O [Estradiol-17 beta] | – | -4.121 | 76.8375 | –
44 | C[C@]12CC[C@@H]3c4ccc(OC(=O)N(CCCl)CCCl)cc4CC[C@H]3[C@@H]1CC[C@@H]2O [Estramustine] | – | -1.527 | 134.744 | –
45 | C[C@]12CC[C@@H]3c4ccc(O)cc4CC[C@H]3[C@@H]1C[C@@H](O)[C@@H]2O [Estriol] | 589.644 | 0.325 | – | –
46 | C[C@]12CC[C@@H]3c4ccc(OS(=O)(=O)O)cc4CC[C@H]3[C@@H]1CCC2=O [Estropipate] | – | -4.027 | 54.037 | –
47 | CC[C@@H](CO)NCCN[C@@H](CC)CO [Ethambutol dihydrochloride] | – | -3.373 | 218.945 | –
48 | CCN(CC)C(=O)c1ccc(O)c(OC)c1 [Ethamivan] | 538.826 | -1.181 | – | –
49 | C#C[C@]1(O)CC[C@H]2[C@@H]3CCc4cc(O)ccc4[C@H]3CC[C@@]21C [Ethinylestradiol] | – | -1.799 | 213.127 | –
50 | CCc1cc(C(N)=S)ccn1 [Ethionamide] | – | 0.084 | 210.286 | –
51 | C#C[C@]1(OC(C)=O)CC[C@H]2[C@@H]3CCC4=C[C@@H](OC(C)=O)CC[C@@H]4[C@H]3CC[C@@]21C [Ethynodiol diacetate] | – | -1.671 | 238.458 | –
52 | C#C[C@]1(O)CC[C@H]2[C@@H]3CCc4cc(OC)ccc4[C@H]3CC[C@@]21C [Ethynylestradiol 3-methyl ether] | 552.584 | -0.011 | – | –
53 | CCc1cccc(CC)c1NC(=O)CN(CC(=O)O)CC(=O)O [Etifenin] | 532.717 | -0.065 | – | –
54 | CCNCC(O)c1cccc(O)c1 (centres unmarked) [Etilefrine hydrochloride] | 503.552 | -0.021 | – | –
55 | CCc1cccc2c3c([nH]c12)C(CC)(CC(=O)O)OCC3 (centres unmarked) [Etodolac] | – | -0.274 | 112.748 | –
